In ChEMBL document CHEMBL1155947, “Discovery of a novel series of benzoic acid derivatives as potent and selective human beta3 adrenergic receptor agonists with good oral bioavailability. 3. Phenylethanolaminotetraline (PEAT) skeleton containing biphenyl or biphenyl ether moiety” (J Med Chem, 2008):

How the values were obtained:
[1] = species: Homo sapiens; assay: Ratio of EC50 for human cloned beta-1 adrenergic receptor to EC50 for human cloned beta3 adrenergic receptor
[2] = molecular target: Beta-3 adrenergic receptor (Homo sapiens, UniProt P13945); assay: Agonist activity at human cloned beta3 adrenergic receptor expressed in CHO cells assessed as cAMP accumulation; type: functional, cell-based
[3] = molecular target: Beta-1 adrenergic receptor (Homo sapiens, UniProt P08588)
Description: Agonist activity at human cloned beta-1 adrenergic receptor expressed in CHO cells assessed as cAMP accumulation

[4] = molecular target: Beta-2 adrenergic receptor (Homo sapiens, UniProt P07550); assay: Agonist activity at human beta2 adrenergic receptor expressed in CHO cells assessed as cAMP accumulation; type: functional, cell-based
[5] = system: Canis familiaris; assay: Ratio of AUC for drug to AUC for 4-((7S)-7-{[(2R)-2-(3-Chlorophenyl)-2-hydroxyethyl]amino}-5,6,7,8-tetrahydro-2-naphthalenyl)benzoic acid hydrochloride in dog at 0.1 or 0.20 mg/kg, po by cassette dosing assay; type: ADME, organism-based, Canis lupus familiaris; set-up: dose 0.2 mg/kg, route oral; conditions: in vivo, 0.2 mg/kg
[6] = system: Canis familiaris; assay: Ratio of Cmax for drug to Cmax for 4-((7S)-7-{[(2R)-2-(3-Chlorophenyl)-2-hydroxyethyl]amino}-5,6,7,8-tetrahydro-2-naphthalenyl)benzoic acid hydrochloride in dog at 0.1 or 0.20 mg/kg, po by cassette dosing assay; type: ADME, organism-based, Canis lupus familiaris; set-up: dose 0.2 mg/kg, route oral; conditions: in vivo, 0.2 mg/kg
[7] = system: Canis familiaris; assay: Ratio of AUC for drug to AUC for 3-[((7S)-7-{[(2R)-2-(3-Chlorophenyl)-2-hydroxyethyl]amino}-5,6,7,8-tetrahydro-2-naphthalenyl)oxy]benzoic acid hydrochloride in dog at 0.1 or 0.20 mg/kg, po by cassette dosing assay; type: ADME, organism-based, Canis lupus familiaris; set-up: dose 0.2 mg/kg, route oral; conditions: in vivo, 0.2 mg/kg
[8] = system: Canis familiaris; assay: Ratio of Cmax for drug to Cmax for 3-[((7S)-7-{[(2R)-2-(3-Chlorophenyl)-2-hydroxyethyl]amino}-5,6,7,8-tetrahydro-2-naphthalenyl)oxy]benzoic acid hydrochloride in dog at 0.1 or 0.20 mg/kg, po by cassette dosing assay; type: ADME, organism-based, Canis lupus familiaris; set-up: dose 0.2 mg/kg, route oral; conditions: in vivo, 0.2 mg/kg

Sequence of Beta-2 adrenergic receptor (P07550 whole entry): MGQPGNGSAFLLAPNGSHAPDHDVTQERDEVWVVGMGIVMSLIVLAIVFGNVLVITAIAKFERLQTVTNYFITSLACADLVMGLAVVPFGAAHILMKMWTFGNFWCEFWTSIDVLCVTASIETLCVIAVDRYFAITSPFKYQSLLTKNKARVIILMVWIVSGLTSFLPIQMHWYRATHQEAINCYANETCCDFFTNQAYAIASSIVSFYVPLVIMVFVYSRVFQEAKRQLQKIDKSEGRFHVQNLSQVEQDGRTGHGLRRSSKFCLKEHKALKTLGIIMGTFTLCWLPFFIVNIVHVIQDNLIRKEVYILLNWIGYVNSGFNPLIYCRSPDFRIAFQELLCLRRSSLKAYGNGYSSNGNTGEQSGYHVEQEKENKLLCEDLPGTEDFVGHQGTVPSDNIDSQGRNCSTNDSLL
Sequence of Beta-3 adrenergic receptor (P13945 whole entry): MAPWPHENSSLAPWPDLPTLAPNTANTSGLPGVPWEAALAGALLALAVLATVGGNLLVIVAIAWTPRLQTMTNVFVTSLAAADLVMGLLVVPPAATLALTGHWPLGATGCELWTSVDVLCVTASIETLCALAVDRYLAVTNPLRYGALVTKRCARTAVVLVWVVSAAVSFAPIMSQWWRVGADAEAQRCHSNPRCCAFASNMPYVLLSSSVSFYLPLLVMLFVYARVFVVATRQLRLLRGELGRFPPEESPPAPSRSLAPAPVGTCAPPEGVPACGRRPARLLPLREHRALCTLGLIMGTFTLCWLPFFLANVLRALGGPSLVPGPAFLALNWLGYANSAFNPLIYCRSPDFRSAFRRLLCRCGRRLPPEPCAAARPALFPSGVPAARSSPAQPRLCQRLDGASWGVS
Sequence of Beta-1 adrenergic receptor (P08588 whole entry): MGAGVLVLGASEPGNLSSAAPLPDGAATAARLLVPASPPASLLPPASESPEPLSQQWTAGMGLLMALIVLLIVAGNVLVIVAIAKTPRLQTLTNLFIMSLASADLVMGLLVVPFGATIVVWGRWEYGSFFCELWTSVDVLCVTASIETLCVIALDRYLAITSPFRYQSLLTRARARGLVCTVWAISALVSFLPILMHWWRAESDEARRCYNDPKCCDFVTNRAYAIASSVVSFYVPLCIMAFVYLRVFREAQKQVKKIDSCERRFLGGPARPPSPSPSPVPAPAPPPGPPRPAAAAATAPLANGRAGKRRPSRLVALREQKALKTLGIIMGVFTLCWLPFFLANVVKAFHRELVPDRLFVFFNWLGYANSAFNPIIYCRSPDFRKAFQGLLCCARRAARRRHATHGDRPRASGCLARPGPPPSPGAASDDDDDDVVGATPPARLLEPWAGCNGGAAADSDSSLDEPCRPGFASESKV

Row | Ratio EC50 [1] | EC50 [2] [nM] | EC50 [3] [nM] | EC50 [4] [nM] | Ratio AUC [5] | Ratio [6] | Ratio AUC [7] | Ratio [8] | SMILES
1 | > 4.5 | 22 | > 100 | – | – | – | – | – | O=C(O)COc1cccc(Oc2ccc3c(c2)C[C@@H](NC[C@H](O)c2cccc(Cl)c2)CC3)c1
2 | > 111 | 9 | > 1000 | – | – | – | – | – | Cc1ccc(Oc2ccc3c(c2)C[C@@H](NC[C@H](O)c2cccc(Cl)c2)CC3)cc1C(=O)O
3 | 168 | 5.3 | 890 | > 1000 | – | – | – | – | COc1cc(Oc2ccc3c(c2)C[C@@H](NC[C@H](O)c2cccc(Cl)c2)CC3)cc(C(=O)O)c1
4 | > 1280 | 0.78 | > 1000 | – | 0.53 | 0.62 | – | – | COc1cc(-c2ccc3c(c2)C[C@@H](NC[C@H](O)c2ccc(Cl)cc2)CC3)ccc1C(=O)O
5 | 700 | 1.4 | 980 | – | 1.01 | 1.13 | – | – | O=C(O)c1ccc(-c2ccc3c(c2)C[C@@H](NC[C@H](O)c2ccc(Cl)cc2)CC3)c(F)c1
6 | > 36 | 28 | > 1000 | – | – | – | – | – | N#Cc1ccc([C@@H](O)CN[C@H]2CCc3ccc(-c4ccc(C(=O)O)cc4)cc3C2)cc1
7 | 155 | 1.8 | 270 | – | – | – | – | – | CN(C)c1cc(Oc2ccc3c(c2)C[C@@H](NC[C@H](O)c2ccc(Cl)nc2)CC3)cc(C(=O)O)c1
8 | 221 | 3.5 | 775 | > 1000 | – | – | – | – | O=C(O)c1ccc(-c2ccc3c(c2)C[C@@H](NC[C@H](O)c2ccc(C(F)(F)F)cc2)CC3)cc1
9 | – | > 100 | > 100 | – | – | – | – | – | O=C(O)c1ccc(-c2ccc3c(c2)C[C@@H](NC[C@H](O)c2cccc(Cl)c2)CCC3)cc1
10 | 16.3 | 38 | 620 | – | – | – | – | – | O=C(O)c1ccc(-c2ccc3c(c2)C[C@@H](NC[C@H](O)c2ccccc2Cl)CC3)cc1
11 | 277 | 1.3 | 360 | – | – | – | 0.06 | 0.1 | CC(=O)Nc1cc(Oc2ccc3c(c2)C[C@@H](NC[C@H](O)c2cccc(Cl)c2)CC3)cc(C(=O)O)c1
12 | > 2.7 | 37 | > 100 | – | – | – | – | – | O=C(O)c1ccc(Oc2ccc3c(c2)C[C@@H](NC[C@H](O)c2cccc(Cl)c2)CC3)cc1
13 | > 3.4 | 29 | > 100 | – | – | – | – | – | O=C(O)c1cccc(-c2ccc3c(c2)C[C@@H](NC[C@H](O)c2cccc(Cl)c2)CC3)c1
14 | > 2 | 49 | > 100 | – | – | – | – | – | O=C(O)c1cccnc1Oc1ccc2c(c1)C[C@@H](NC[C@H](O)c1cccc(Cl)c1)CC2
15 | > 10 | 10 | > 100 | – | – | – | – | – | O=C(O)COc1cccc(-c2ccc3c(c2)C[C@@H](NC[C@H](O)c2cccc(Cl)c2)CC3)c1
16 | > 166 | 6 | > 1000 | > 1000 | – | – | – | – | COc1ccc(Oc2ccc3c(c2)C[C@@H](NC[C@H](O)c2cccc(Cl)c2)CC3)cc1C(=O)O
17 | 802 | 0.81 | 650 | – | – | – | – | – | O=C(O)c1ccc(-c2ccc3c(c2)C[C@@H](NC[C@H](O)c2ccc(Cl)cc2)CC3)cc1F
18 | > 30 | 33 | > 1000 | – | – | – | – | – | O=C(O)c1ccc(-c2ccc3c(c2)C[C@@H](NC[C@H](O)c2ccc(Cl)c(Cl)c2)CC3)cc1
19 | – | > 100 | > 100 | – | – | – | – | – | O=C(O)c1ccc(Oc2ccc3c(c2)C[C@@H](NC[C@H](O)c2cccc(Cl)c2)CCC3)cc1
20 | > 4.2 | 24 | > 100 | – | – | – | – | – | O=C(O)COc1ccc(Oc2ccc3c(c2)C[C@@H](NC[C@H](O)c2cccc(Cl)c2)CC3)cc1
21 | > 62 | 16 | > 1000 | – | – | – | – | – | O=C(O)c1cc(Oc2ccc3c(c2)C[C@@H](NC[C@H](O)c2cccc(Cl)c2)CC3)ccc1Cl
22 | 69 | 4.8 | 330 | – | – | – | – | – | O=C(O)c1cccc(Oc2ccc3c(c2)C[C@@H](NC[C@H](O)c2ccc(Cl)cc2)CC3)c1
23 | > 77 | 13 | > 1000 | – | – | – | – | – | O=C(O)c1ccc(-c2ccc3c(c2)C[C@@H](NC[C@H](O)c2cccnc2)CC3)cc1
24 | 400 | 2 | 800 | – | 0.64 | 0.72 | – | – | Cc1cc(C(=O)O)ccc1-c1ccc2c(c1)C[C@@H](NC[C@H](O)c1ccc(Cl)cc1)CC2
25 | 150 | 3.2 | 480 | – | – | – | 0.2 | 0.26 | Nc1cc(Oc2ccc3c(c2)C[C@@H](NC[C@H](O)c2cccc(Cl)c2)CC3)cc(C(=O)O)c1
26 | > 417 | 2.4 | > 1000 | – | – | – | – | – | O=C(O)c1ccc(-c2ccc3c(c2)C[C@@H](NC[C@H](O)c2cccc(Cl)c2)CC3)s1
27 | > 1260 | 0.79 | > 1000 | – | 0.77 | 1.06 | – | – | Cc1ccc([C@@H](O)CN[C@H]2CCc3ccc(-c4ccc(C(=O)O)cc4)cc3C2)cc1
28 | 458 | 1.8 | 825 | – | – | – | – | – | Cc1cc(-c2ccc3c(c2)C[C@@H](NC[C@H](O)c2ccc(Cl)cc2)CC3)ccc1C(=O)O
29 | > 5 | 20 | > 100 | – | – | – | 0.32 | 0.5 | O=C(O)c1cccc(Oc2ccc3c(c2)C[C@@H](NC[C@H](O)c2cccnc2)CC3)c1

Row | SMILES | Ratio EC50 [1] | EC50 [2] [nM] | EC50 [3] [nM] | EC50 [4] [nM] | Ratio AUC [5] | Ratio [6] | Ratio AUC [7] | Ratio [8]
30 | CC(C)Oc1cc(-c2ccc3c(c2)C[C@@H](NC[C@H](O)c2ccc(Cl)cc2)CC3)ccc1C(=O)O | 443 | 0.7 | 310 | – | – | – | – | –
31 | O=C(O)c1ccc(-c2ccc3c(c2)C[C@@H](NC[C@H](O)c2ccc(Cl)nc2)CC3)cc1 | > 1260 | 0.85 | 200 | > 1000 | 0.53 | 0.73 | – | –
32 | O=C(O)c1cc(NC2CCOCC2)cc(Oc2ccc3c(c2)C[C@@H](NC[C@H](O)c2cccc(Cl)c2)CC3)c1 | 340 | 1 | 340 | – | – | – | 0.02 | 0.06
33 | O=C(O)c1ccc(Oc2ccc3c(c2)C[C@@H](NC[C@H](O)c2cccc(Cl)c2)CC3)s1 | 117 | 5.7 | 670 | > 1000 | – | – | – | –
34 | O=C(O)c1cc(NC2CCCCC2)cc(Oc2ccc3c(c2)C[C@@H](NC[C@H](O)c2cccc(Cl)c2)CC3)c1 | 88 | 0.78 | 69 | – | – | – | – | –
35 | O=C(O)c1cccc(Oc2ccc3c(c2)C[C@@H](NC[C@H](O)c2ccc(Cl)nc2)CC3)c1 | 34 | 4.1 | 140 | – | – | – | – | –
36 | O=C(O)c1ccc(-c2ccc3c(c2)C[C@@H](NC[C@H](O)c2cccc(Cl)c2)CC3)nc1 | 51 | 9.6 | 490 | – | – | – | – | –
37 | CCCNc1cc(Oc2ccc3c(c2)C[C@@H](NC[C@H](O)c2cccc(Cl)c2)CC3)cc(C(=O)O)c1 | 224 | 0.77 | 173 | – | – | – | – | –
